Experimental findings from the NIST ThermoML archive (doi:10.1021/je900327x) are described below.

Numbers after ± are expanded uncertainties.

For data set [1] the following is noted: 298.15 K; 101.33 kPa; Liquid; Vibrating tube method.
Data set [2] is described as follows: refractive index (Na D-line) (dimensionless). The note with it: 298.15 K; 101.33 kPa; Liquid; Standard Abbe refractometry.

Take `CC(C)O` [propan-2-ol]: the mass density (as a rule, the mass of a sample divided by its volume) in data set [1] is reported as 781.01 ± 0.2 kg/m3. In addition, the refractive index (as a rule, the speed of light in vacuum divided by its phase velocity in the sample) in data set [2] was 1.37509 ± 0.00068.
Regarding `CC(C)CC(C)(C)C` [2,2,4-trimethylpentane], the mass density in data set [1] is 687.73 ± 0.21 kg/m3. In addition, in data set [2], the refractive index amounted to 1.38887 ± 0.00068.
On the same counts, the results for `C1COCO1` [1,3-dioxolane] are 1058.87 ± 0.15 kg/m3 and 1.39779 ± 0.00068.
